Biological target: human GlyT1c transporter (Homo sapiens (Human), UniProt P48067)
Assay: Radioligand binding assay using recombinant CHO cell membranes expressing human GlyT1
Conditions: read-out: radioligand binding Kiapp
Description: Biological Testing • 1. [^3H]-Glycine uptake into recombinant CHO cells expressing human GlyT1: Human GlyT1c expressing recombinant hGlyT1c—5_CHO cells were plated at 20,000 cells per well in 96 well Cytostar-T scintillation microplates (Amersham Biosciences) and cultured to sub-confluency for 24 h. For glycine uptake assays the culture medium was aspirated and the cells were washed once with 100 μl HBSS (Gibco BRL, #14025-050) with 5 mM L-Alanine (Merck #1007). 80 μl HBSS buffer were added, followed by 10 μl inhibitor or vehicle (10% DMSO) and 10 μl [^3H]-glycine (TRK71, Amersham Biosciences) to a final concentration of 200 nM for initiation of glycine uptake. The plates were placed in a Wallac Microbeta (PerkinElmer) and continuously counted by solid phase scintillation spectrometry during up to 3 hours. Nonspecific uptake was determined in the presence of 10 μM Org24598. IC50 calculations were made by four-parametric logistic nonlinear regression analysis (GraphPad Prism) using determinations within the range of linear increase of [^3H]-glycine incorporation between 60 and 120 min. • 2. Radioligand binding assays using recombinant CHO cell membranes expressing human GlyT1:
Radioligand binding to human GlyT1c transporter-expressing membranes was determined as described in Mezler et al., Molecular Pharmacology 74:1705-1715, 2008.

Chain of human GlyT1c transporter (P48067 whole entry): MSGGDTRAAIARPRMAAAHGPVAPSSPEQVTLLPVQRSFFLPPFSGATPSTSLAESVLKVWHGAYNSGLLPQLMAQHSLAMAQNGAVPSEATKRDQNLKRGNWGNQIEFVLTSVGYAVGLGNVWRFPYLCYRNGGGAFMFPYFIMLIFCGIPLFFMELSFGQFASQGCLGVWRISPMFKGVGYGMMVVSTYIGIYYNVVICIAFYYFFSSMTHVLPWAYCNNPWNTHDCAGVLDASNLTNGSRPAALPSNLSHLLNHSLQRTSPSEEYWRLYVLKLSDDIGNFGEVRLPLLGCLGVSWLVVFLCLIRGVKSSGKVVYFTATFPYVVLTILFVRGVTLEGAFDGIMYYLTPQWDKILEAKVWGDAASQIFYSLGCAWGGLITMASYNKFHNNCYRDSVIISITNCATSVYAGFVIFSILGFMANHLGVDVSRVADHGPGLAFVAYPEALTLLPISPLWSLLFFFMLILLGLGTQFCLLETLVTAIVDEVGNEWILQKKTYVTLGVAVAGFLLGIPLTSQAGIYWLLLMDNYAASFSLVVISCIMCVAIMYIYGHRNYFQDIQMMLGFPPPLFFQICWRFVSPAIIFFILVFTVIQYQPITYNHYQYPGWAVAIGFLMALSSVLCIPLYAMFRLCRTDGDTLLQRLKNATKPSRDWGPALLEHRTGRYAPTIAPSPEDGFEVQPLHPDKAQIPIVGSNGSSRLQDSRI

| Compound | Ki [nM] |
| --- | --- |
| CNC[C@@H]1CCc2ccc(OCCNS(=O)(=O)CC3CC3)cc2[C@@H]1Cc1ccccc1 (stereo in doubt) [Example 199, N-[2-(8-Benzyl-7-methylaminomethyl-5,6,7,8-tetrahydro-naphthalen-2-yloxy)-ethyl]-C-cyclopropyl-methanesulfonamide] | ≤ 100 |
| Cn1cnc(S(=O)(=O)NCCOc2ccc3c(c2)[C@H](Cc2ccccc2)[C@H](CN2CCC2)CC3)c1 (stereo in doubt) [Example 202, 1-Methyl-1H-imidazole-4-sulfonic acid [2-(7-azetidin-1-ylmethyl-8-benzyl-5,6,7,8-tetrahydro-naphthalen-2-yloxy)-ethyl]-amide] | ≤ 100 |
| CCS(=O)(=O)NCCOc1ccc2c(c1)[C@H](Cc1ccccc1)[C@H](CN)CC2 (stereo in doubt) [Example 195, Ethanesulfonic acid [2-(7-aminomethyl-8-benzyl-5,6,7,8-tetrahydro-naphthalen-2-yloxy)-ethyl]-amide] | ≤ 100 |
| NC[C@@H]1CCc2ccc(OCCNS(=O)(=O)CC3CC3)cc2[C@@H]1Cc1ccccc1 (stereo in doubt) [Example 196, N-[2-(7-Aminomethyl-8-benzyl-5,6,7,8-tetrahydro-naphthalen-2-yloxy)-ethyl]-C-cyclopropyl-methanesulfonamide] | ≤ 100 |
| O=S(=O)(CC1CC1)NCCOc1ccc2c(c1)[C@H](Cc1ccccc1)[C@H](CN1CCC1)CC2 (stereo in doubt) [Example 201, N-[2-(7-Azetidin-1-ylmethyl-8-benzyl-5,6,7,8-tetrahydro-naphthalen-2-yloxy)-ethyl]-C-cyclopropyl-methanesulfonamide] | ≤ 100 |
| CCS(=O)(=O)NCCOc1ccc2c(c1)[C@H](Cc1ccccc1)[C@H](CNC)CC2 (stereo in doubt) [Example 198, Ethanesulfonic acid [2-(8-benzyl-7-methylaminomethyl-5,6,7,8-tetrahydro-naphthalen-2-yloxy)-ethyl]-amide] | ≤ 100 |
| CCS(=O)(=O)NCCOc1ccc2c(c1)[C@H](Cc1ccccc1)[C@H](CN1CCC1)CC2 (stereo in doubt) [Example 200, Ethanesulfonic acid [2-(7-azetidin-1-ylmethyl-8-benzyl-5,6,7,8-tetrahydro-naphthalen-2-yloxy)-ethyl]-amide] | ≤ 500 |
| Cn1cnc(S(=O)(=O)NCc2ccc3c(c2)[C@H](Cc2ccccc2)[C@H](CN2CCC2)CC3)c1 (stereo in doubt) [Example 203, 1-Methyl-1H-imidazole-4-sulfonic acid (7-azetidin-1-ylmethyl-8-benzyl-5,6,7,8-tetrahydro-naphthalen-2-ylmethyl)-amide] | ≤ 100 |

— patent publication US9051280B2, “Tetraline and indane derivatives, pharmaceutical compositions containing them, and their use in therapy” (AbbVie Deutschland GmbH & Co. KG, priority 2010, dated 2015)
